Data as given in ChEMBL document CHEMBL1201862, “PubChem BioAssay data set” (2004).
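Tested at 5 concentrations; 48 h exposure; 96-well plates; endpoints linearly interpolated, else capped at highest concentration. GI50: concentration for 50% inhibition of growth.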 Activity calls are given as the source filed them. No stated cut-off is given here; in the data, active = GI50 up to about 1.1 µM and inactive = higher.

What was measured:
Assay in all cases: NCI tumour cell line growth inhibition, 48 h
[1] = tested on: A498
[2] = tested on: ACHN
[3] = tested on: HCC 2998
[4] = tested on: HOP-62
[5] = tested on: KM-20L2
[6] = tested on: LOX IMVI
[7] = tested on: OVCAR-5
[8] = tested on: OVCAR-8
[9] = tested on: RXF 393
[10] = tested on: SF-268
[11] = tested on: SF-539
[12] = tested on: SK-MEL-2
[13] = tested on: SK-MEL-5
[14] = tested on: SW-620
[15] = tested on: UACC-62
[16] = tested on: NCI-H23
[17] = tested on: DU-145
[18] = tested on: Hs-578T
[19] = tested on: NCI/ADR-RES
[20] = tested on: PC-3

Measured: GI50

O=S(=O)(OI(OI(OS(=O)(=O)C(F)(F)F)c1ccccc1)c1ccccc1)C(F)(F)F
inactive: [1] > 100 µM | [2] 52.1 µM | [3] > 100 µM | [4] 90.8 µM | [5] 71.6 µM | [6] 20 µM | [7] > 100 µM | [8] 48.8 µM | [9] 17.3 µM | [10] 31.3 µM | [11] 86.3 µM | [12] 38.5 µM | [13] 13.5 µM | [14] 32 µM | [15] 64.4 µM

CC(/C(=N/NC(=O)C(N)=O)c1c(Cl)ccc(Cl)c1O)C1(O)C(=O)Nc2ccccc21 (stereo not given)
inactive: [1] 17.8 µM | [2] 26.5 µM | [3] 65.3 µM | [4] > 100 µM | [5] 56.2 µM | [6] 30.1 µM | [16] 50.6 µM | [7] 34.8 µM | [8] 29.7 µM | [9] 55.3 µM | [10] > 100 µM | [11] 32 µM | [12] 33.3 µM | [13] 34.6 µM | [14] 41.7 µM | [15] 49.1 µM

Cc1cccc(N2C(=O)C(=O)C(c3nc4ccccc4s3)/C(=N/NC(=S)NN)C2=O)c1C (stereo not given)
inactive: [1] > 100 µM | [2] > 100 µM | [3] > 100 µM | [4] > 100 µM | [5] > 100 µM | [6] > 100 µM | [16] > 100 µM | [7] > 100 µM | [8] > 100 µM | [9] > 100 µM | [10] > 100 µM | [11] > 100 µM | [12] > 100 µM | [13] > 100 µM | [14] > 100 µM | [15] > 100 µM

COc1cc(OC)c(C2CC=Cc3c(OC)cc(OC)c(OC)c32)cc1OC (stereo not given)
inactive: [1] > 100 µM | [2] > 100 µM | [3] > 100 µM | [4] > 100 µM | [5] > 100 µM | [6] > 100 µM | [16] > 100 µM | [7] > 100 µM | [8] > 100 µM | [9] > 100 µM | [10] > 100 µM | [11] > 100 µM | [12] > 100 µM | [13] > 100 µM | [14] > 100 µM | [15] > 100 µM

COc1c(C(=O)c2ccc([N+](=O)[O-])cc2)cc(C(C)(C)C)cc1C(C)(C)C
inactive: [1] 55.8 µM | [2] 31.3 µM | [3] 24.9 µM | [4] 49.5 µM | [5] 35.6 µM | [6] 12.3 µM | [16] 34.7 µM | [7] 13.4 µM | [8] 52.7 µM | [9] 17.1 µM | [10] 34.4 µM | [11] 64.4 µM | [12] 13.4 µM | [13] 15.6 µM | [14] 48.6 µM | [15] 16.7 µM

COc1cc(OC(=O)c2ccccc2)cc2c1C(=O)C=CC2=O
inactive: [1] 18.5 µM | [2] 12.8 µM | [17] 17.7 µM | [3] 4.58 µM | [4] 42.9 µM | [18] 25.1 µM | [5] > 56.9 µM | [6] 12.3 µM | [16] 16.2 µM | [19] 15.2 µM | [7] 32.7 µM | [8] 18.9 µM | [20] 14 µM | [9] 10.9 µM | [10] 16.8 µM | [11] 20.1 µM | [12] 18.1 µM | [13] 16 µM | [14] 8.79 µM | [15] 13.8 µM

C(=N\Nc1ccccc1)/c1nc2ccccc2nc1/C=N/Nc1ccccc1
inactive: [1] 16.6 µM | [2] 11.8 µM | [3] 8.02 µM | [4] 15.9 µM | [5] 8.73 µM | [6] 9.25 µM | [16] 13.3 µM | [7] 27 µM | [8] 6.75 µM | [9] 16.3 µM | [10] 13.1 µM | [11] 14.8 µM | [12] 18.2 µM | [13] 19 µM | [14] 14.9 µM | [15] 12.9 µM

Cc1cc2c(cc1C)NC(=O)C(NC(=O)/C=C/c1ccccc1)C=N2 (stereo not given)
inactive: [1] 37.2 µM | [2] 41.9 µM | [3] 48.6 µM | [4] > 100 µM | [5] 45.3 µM | [6] 22.7 µM | [7] > 100 µM | [8] 38.2 µM | [9] 16.1 µM | [10] 29.9 µM | [11] 24.8 µM | [12] 24.5 µM | [13] 29.9 µM | [14] 4.73 µM | [15] 34.8 µM

COc1cc(C2C(C(=O)Nc3ccccc3)=C(C)NC(C)=C2C(=O)Nc2ccccc2)ccc1O
inactive: [1] > 100 µM | [2] 98.9 µM | [3] 27 µM | [4] > 100 µM | [5] 20.1 µM | [6] > 10 µM | [16] 39.5 µM | [7] > 100 µM | [8] 30.1 µM | [9] > 100 µM | [10] > 100 µM | [11] 21.6 µM | [12] 28.6 µM | [14] 37.9 µM

O=C1C=CC(=O)c2cc(Sc3ccccc3)c(=O)c(Sc3ccccc3)cc21
inactive: [1] > 100 µM | [2] 12.8 µM | [3] > 100 µM | [4] > 100 µM | [5] > 100 µM | [6] > 100 µM | [16] 47.2 µM | [8] 31.7 µM | [9] 14 µM | [10] 42 µM | [11] > 100 µM | [12] > 100 µM | [13] > 100 µM | [14] > 100 µM | [15] 24.8 µM

CCCCCC/C(CC(=O)CCC(=O)NCCc1ccccc1)=N\Nc1ccc([N+](=O)[O-])cc1[N+](=O)[O-]
inactive: [1] 79.8 µM | [2] 97.7 µM | [3] > 100 µM | [4] > 100 µM | [5] > 100 µM | [6] 34.7 µM | [16] 45 µM | [7] > 100 µM | [8] 89.3 µM | [9] > 100 µM | [10] 71.6 µM | [11] > 100 µM | [12] > 100 µM | [13] 70.1 µM | [14] 68.1 µM | [15] 30.5 µM

CN(C)c1ccc(-c2cc(O)c3cc4c(cc3n2)OCO4)cc1
inactive: [1] > 100 µM | [2] > 100 µM | [3] > 100 µM | [4] 73.5 µM | [5] > 100 µM | [6] > 100 µM | [16] > 100 µM | [8] > 100 µM | [9] > 100 µM | [10] > 100 µM | [11] > 100 µM | [12] > 100 µM | [13] > 100 µM | [14] > 100 µM | [15] > 100 µM
